Data from ChEMBL document CHEMBL1697692, “Developing structure-activity relationships for the prediction of hepatotoxicity” (Chem Res Toxicol, 2010).
Bridge positions count the residues as written; N and C are the ends. Square brackets hold non-standard residues; d marks the D form. Peptide text beside a SMILES is read from it. * marks the point of attachment. Ileψ(thiazoline)Cys = CC[C@H](C)[C@H](N)C1=N[C@H](C(=O)*)CS1; dOrn = NCCC[C@@H](N)C(=O)O

Test system: Hepatotoxicity
Assay: Literature-mined public compounds from Greene et al multi-species hepatotoxicity modelling dataset

Compound: CO[C@@]1(NC(=O)Cc2cccs2)C(=O)N2C(C(=O)O)=C(COC(N)=O)CS[C@@H]21 [CEFOXITIN]
- Hepatotoxicity: HH: Evidence of human hepatotoxicity

Compound: Cc1ccc(S(=O)(=O)NC(=O)NN2CCCCCC2)cc1 [TOLAZAMIDE]
- Hepatotoxicity: HH: Evidence of human hepatotoxicity

Compound: C[C@H](CCC(=O)O)[C@H]1CC[C@H]2[C@@H]3[C@@H](O)C[C@@H]4C[C@H](O)CC[C@]4(C)[C@H]3CC[C@]12C (stereo in doubt; form 2) [URSODIOL]
- Hepatotoxicity: WE: Weak evidence (<10 case reports) of human hepatotoxicity

Compound: COc1cc(C(=O)NCc2ccc(OCCN(C)C)cc2)cc(OC)c1OC.Cl [TRIMETHOBENZAMIDE HYDROCHLORIDE]
- Hepatotoxicity: HH: Evidence of human hepatotoxicity

Compound: C#C[C@]1(O)CC[C@H]2[C@@H]3CCC4=Cc5oncc5C[C@]4(C)[C@H]3CC[C@@]21C [DANAZOL]
- Hepatotoxicity: HH: Evidence of human hepatotoxicity

Compound: CISPLATIN
- Hepatotoxicity: HH: Evidence of human hepatotoxicity

Compound: CC(=O)Nc1ccc(O)cc1 [ACETAMINOPHEN]
- Hepatotoxicity: HH: Evidence of human hepatotoxicity

Compound: NN [HYDRAZINE]
- Hepatotoxicity: AH: Evidence for animal hepatotoxicity but not tested in humans

Compound: CN[C@H](CC(C)C)C(=O)N[C@H]1C(=O)N[C@@H](CC(N)=O)C(=O)N[C@H]2C(=O)N[C@H]3C(=O)N[C@H](C(=O)N[C@H](C(=O)O)c4cc(O)cc(O)c4-c4cc3ccc4O)[C@H](O)c3ccc(c(Cl)c3)Oc3cc2cc(c3O[C@@H]2O[C@H](CO)[C@@H](O)[C@H](O)[C@H]2O[C@H]2C[C@](C)(N)[C@H](O)[C@H](C)O2)Oc2ccc(cc2Cl)[C@H]1O [VANCOMYCIN]
- Hepatotoxicity: HH: Evidence of human hepatotoxicity

Compound: S=C=Nc1ccccc1 [PHENYLISOTHIOCYANATE]
- Hepatotoxicity: AH: Evidence for animal hepatotoxicity but not tested in humans

Compound: O=C(c1ccc(OCCN2CCCCC2)cc1)c1c(-c2ccc(O)cc2)sc2cc(O)ccc12 [RALOXIFENE]
- Hepatotoxicity: WE: Weak evidence (<10 case reports) of human hepatotoxicity

Compound: CC(C)C(=O)Nc1ccc([N+](=O)[O-])c(C(F)(F)F)c1 [FLUTAMIDE]
- Hepatotoxicity: HH: Evidence of human hepatotoxicity

Compound: Nc1ccc(S(=O)(=O)c2ccc(N)cc2)cc1 [DAPSONE]
- Hepatotoxicity: HH: Evidence of human hepatotoxicity

Compound: CC(=O)[C@H]1CC[C@H]2[C@@H]3CCC4=CC(=O)CC[C@]4(C)[C@H]3CC[C@]12C [PROGESTERONE]
- Hepatotoxicity: HH: Evidence of human hepatotoxicity

Compound: Nc1nc(=O)[nH]cc1F [FLUCYTOSINE]
- Hepatotoxicity: HH: Evidence of human hepatotoxicity

Compound: CCOC(=O)C1(c2ccccc2)CCN(CCC(C#N)(c2ccccc2)c2ccccc2)CC1.Cl [DIPHENOXYLATE HYDROCHLORIDE]
- Hepatotoxicity: NE: No evidence of hepatotoxicity in any species

Compound: C#C[C@]1(OC(C)=O)CC[C@H]2[C@@H]3CCC4=C[C@@H](OC(C)=O)CC[C@@H]4[C@H]3CC[C@@]21C [ETHYNODIOL DIACETATE]
- Hepatotoxicity: HH: Evidence of human hepatotoxicity

Compound: Cc1ncc([N+](=O)[O-])n1CCO [METRONIDAZOLE]
- Hepatotoxicity: HH: Evidence of human hepatotoxicity

Compound: CC1(COc2ccc(CC3SC(=O)NC3=O)cc2)CCCCC1 (configuration not stated) [CIGLITAZONE]
- Hepatotoxicity: HH: Evidence of human hepatotoxicity

Compound: CC(C)c1nc(CN(C)C(=O)N[C@H](C(=O)N[C@@H](Cc2ccccc2)C[C@H](O)[C@H](Cc2ccccc2)NC(=O)OCc2cncs2)C(C)C)cs1 [RITONAVIR]
- Hepatotoxicity: HH: Evidence of human hepatotoxicity

Compound: CCCCC(=O)N(Cc1ccc(-c2ccccc2-c2nnn[nH]2)cc1)[C@H](C(=O)O)C(C)C
- Hepatotoxicity: WE: Weak evidence (<10 case reports) of human hepatotoxicity

Compound: Cc1cc(C(C)(C)C)c(O)c(C(C)(C)C)c1 [BUTYLATED HYDROXYTOLUENE]
- Hepatotoxicity: AH: Evidence for animal hepatotoxicity but not tested in humans

Compound: CCCOc1ccc2nc(NC(=O)OC)[nH]c2c1 [OXIBENDAZOLE]
- Hepatotoxicity: AH: Evidence for animal hepatotoxicity but not tested in humans

Compound: CC(C)(C(=O)O)c1ccc(C(O)CCCN2CCC(C(O)(c3ccccc3)c3ccccc3)CC2)cc1 (configuration not stated) [FEXOFENADINE]
- Hepatotoxicity: NE: No evidence of hepatotoxicity in any species

Compound: S=C=Nc1ccc2ccccc2c1
- Hepatotoxicity: WE: Weak evidence (<10 case reports) of human hepatotoxicity

Compound: NCCCCCC(=O)O [AMINOCAPROIC ACID]
- Hepatotoxicity: NE: No evidence of hepatotoxicity in any species

Compound: N[C@@H](C(=O)N[C@@H]1C(=O)N2C(C(=O)O)=C(Cl)CC[C@H]12)c1ccccc1 [LORACARBEF ANHYDROUS]
- Hepatotoxicity: NE: No evidence of hepatotoxicity in any species

Compound: COC(=O)C(c1ccccc1)C1CCCCN1 (configuration not stated) [METHYLPHENIDATE]
- Hepatotoxicity: HH: Evidence of human hepatotoxicity

Compound: O=C(O)c1cc(/N=N/c2ccc(S(=O)(=O)Nc3ccccn3)cc2)ccc1O [SULFASALAZINE]
- Hepatotoxicity: HH: Evidence of human hepatotoxicity

Compound: Cl.Clc1cccc(Cl)c1NC1=NCCN1 [CLONIDINE HYDROCHLORIDE]
- Hepatotoxicity: HH: Evidence of human hepatotoxicity

Compound: CN1CCC(=C2c3ccccc3C=Cc3ccccc32)CC1.Cl [CYPROHEPTADINE HYDROCHLORIDE]
- Hepatotoxicity: HH: Evidence of human hepatotoxicity

Compound: COC(=O)Nc1nc2ccc(C(=O)c3cccs3)cc2[nH]1 [NOCODAZOLE]
- Hepatotoxicity: NE: No evidence of hepatotoxicity in any species

Compound: COCC(=O)O [METHOXYACETIC ACID]
- Hepatotoxicity: AH: Evidence for animal hepatotoxicity but not tested in humans

Compound: CCC1=C(C)CN(C(=O)NCCc2ccc(S(=O)(=O)NC(=O)N[C@H]3CC[C@H](C)CC3)cc2)C1=O [GLIMEPIRIDE]
- Hepatotoxicity: WE: Weak evidence (<10 case reports) of human hepatotoxicity

Compound: C[C@@H]1[C@H](O)[C@@H](C)/C=C/C=C/C=C/C=C/C=C/C=C/C=C/[C@H](O[C@@H]2O[C@H](C)[C@@H](O)[C@H](N)[C@@H]2O)C[C@@H]2O[C@](O)(C[C@@H](O)C[C@@H](O)[C@H](O)CC[C@@H](O)C[C@@H](O)CC(=O)O[C@H]1C)C[C@H](O)[C@H]2C(=O)O [AMPHOTERICIN B]
- Hepatotoxicity: WE: Weak evidence (<10 case reports) of human hepatotoxicity

Compound: NC[C@@H]1O[C@H](O[C@H]2[C@@H](O)[C@H](O[C@@H]3[C@@H](O)[C@H](N)C[C@H](N)[C@H]3O[C@H]3O[C@H](CO)[C@@H](O)[C@H](O)[C@H]3N)O[C@@H]2CO)[C@H](N)[C@@H](O)[C@@H]1O.O=S(=O)(O)O [PAROMOMYCIN SULFATE]
- Hepatotoxicity: NE: No evidence of hepatotoxicity in any species

Compound: CCc1nc(N)nc(N)c1-c1ccc(Cl)cc1 [PYRIMETHAMINE]
- Hepatotoxicity: HH: Evidence of human hepatotoxicity

Compound: CN(C)C(=O)Oc1cc(OC(=O)N(C)C)cc(C(O)CNC(C)(C)C)c1 (configuration not stated) [BAMBUTEROL]
- Hepatotoxicity: NE: No evidence of hepatotoxicity in any species

Compound: c1ccc2c(c1)Nc1ccccc1S2 [PHENOTHIAZINE]
- Hepatotoxicity: HH: Evidence of human hepatotoxicity

Compound: N[C@H]1C(O)O[C@H](CO)[C@@H](O)[C@@H]1O (some centres not stated) [GLUCOSAMINE]
- Hepatotoxicity: AH: Evidence for animal hepatotoxicity but not tested in humans

Compound: CC[C@H](C)[C@H](N)C1=N[C@H](C(=O)N[C@@H](CC(C)C)C(=O)N[C@H](CCC(=O)O)C(=O)N[C@H](C(=O)N[C@H]2CCCCNC(=O)[C@H](CC(N)=O)NC(=O)[C@@H](CC(=O)O)NC(=O)[C@H](Cc3cnc[nH]3)NC(=O)[C@@H](Cc3ccccc3)NC(=O)[C@H]([C@@H](C)CC)NC(=O)[C@@H](CCCN)NC2=O)[C@@H](C)CC)CS1 [BACITRACIN] ({Ileψ(thiazoline)Cys}-L[dE]IK[dOrn]I[dF]H[dD]N; lactam 4-C)
- Hepatotoxicity: NE: No evidence of hepatotoxicity in any species

Compound: CCC1(C)CC(=O)NC1=O (configuration not stated) [ETHOSUXIMIDE]
- Hepatotoxicity: HH: Evidence of human hepatotoxicity

Compound: CC(C)NCC(O)c1cc(O)cc(O)c1.CC(C)NCC(O)c1cc(O)cc(O)c1.O=S(=O)(O)O (configuration not stated) [METAPROTERENOL SULFATE]
- Hepatotoxicity: HH: Evidence of human hepatotoxicity

Compound: CC(C(=O)O)c1ccc(N2CC=CC2)c(Cl)c1 (configuration not stated) [PIRPROFEN]
- Hepatotoxicity: HH: Evidence of human hepatotoxicity

Compound: C=C1[C@@H]2CCC3[C@@](CC[C@@H]4[C@H](C(=O)O)C[C@@H](O[C@@H]5O[C@H](CO)[C@@H](OS(=O)(=O)[O-])[C@H](OS(=O)(=O)[O-])[C@H]5OC(=O)CC(C)C)C[C@@]34C)(C2)[C@@H]1O.[K+].[K+] (some centres not stated) [ATRACTYLOSIDE]
- Hepatotoxicity: HH: Evidence of human hepatotoxicity

Compound: Cl[C@H]1[C@H](Cl)[C@@H](Cl)[C@@H](Cl)[C@H](Cl)[C@H]1Cl (stereo in doubt; form 2) [LINDANE]
- Hepatotoxicity: HH: Evidence of human hepatotoxicity

Compound: [H]/N=C(/N)N[C@H]1[C@H](O)[C@@H](O)[C@H](O[C@@H]2O[C@@H](C)[C@](O)(C=O)[C@H]2O[C@@H]2O[C@@H](CO)[C@H](O)[C@@H](O)[C@@H]2NC)[C@@H](N/C(N)=N\[H])[C@@H]1O [STREPTOMYCIN]
- Hepatotoxicity: NE: No evidence of hepatotoxicity in any species

Compound: CC(=O)S[C@@H]1CC2=CC(=O)CC[C@]2(C)[C@H]2CC[C@@]3(C)[C@@H](CC[C@@]34CCC(=O)O4)[C@H]12 [SPIRONOLACTONE]
- Hepatotoxicity: HH: Evidence of human hepatotoxicity

Compound: CC(N/C(=N\C#N)Nc1ccncc1)C(C)(C)C (configuration not stated) [PINACIDIL ANHYDROUS]
- Hepatotoxicity: NE: No evidence of hepatotoxicity in any species

Compound: CCCC(C)(COC(N)=O)COC(N)=O [MEPROBAMATE]
- Hepatotoxicity: HH: Evidence of human hepatotoxicity

Compound: S=C=Nc1cccc2ccccc12 [1-NAPHTHYLISOTHIOCYANATE]
- Hepatotoxicity: HH: Evidence of human hepatotoxicity

Compound: Cn1c(=O)c2[nH]cnc2n(C)c1=O.O [THEOPHYLLINE]
- Hepatotoxicity: NE: No evidence of hepatotoxicity in any species

Compound: TRANSPLATIN
- Hepatotoxicity: AH: Evidence for animal hepatotoxicity but not tested in humans

Compound: COC(=O)C1=C(C)NC(C)=C(C(=O)OCCN(C)Cc2ccccc2)C1c1cccc([N+](=O)[O-])c1.Cl (configuration not stated) [NICARDIPINE HYDROCHLORIDE]
- Hepatotoxicity: HH: Evidence of human hepatotoxicity

Compound: C=C[C@H]1C[N@@]2CC[C@H]1C[C@H]2[C@H](O)c1ccnc2ccc(OC)cc12 [QUININE]
- Hepatotoxicity: HH: Evidence of human hepatotoxicity

Compound: CC(CCc1ccccc1)NCC(O)c1ccc(O)c(C(N)=O)c1 (configuration not stated) [LABETALOL]
- Hepatotoxicity: HH: Evidence of human hepatotoxicity

Compound: O=C1CC2(CCCC2)CC(=O)N1CCCCN1CCN(c2ncccn2)CC1 [BUSPIRONE]
- Hepatotoxicity: NE: No evidence of hepatotoxicity in any species
